Where two headings read alike, the source gives them in different places.
Assays:
Recombinant DPP-IV [1] = biological target: T1, Recombinant DPP-IV (Homo sapiens, UniProt P27487); design: purchased Chemicon International, Inc., Temecula, Calif; conditions: Leiting et al. (2003); read-out: DPP-IV IC50, published value; cited from earlier work
NIH/Swiss mice = test: Oral glucose tolerance test (OGTT), glucose lowering; conditions: IP; for glucose lowering in OGTT (FIGS. 7, 8): 2 hour fasted mice
[2] = human, kidney or brush border membranes, 4 h, pH 7.4
Method: The tubes were incubated in VorTemp 56™ (Eurotech Labs, UK) at 37° C. vortexed at 500 RPM. At time points of 0, 1, 2, 3, 4, and 5 hours, 200 μl STOP solution (50% ACN, 1% formic acid) was added to a given tube, and the samples were allowed to incubate until the end of the experiment. The samples were collected after 5 hours, centrifuged, and 200 μl of the supernatants were transferred into mass spectrometry vials. The intensities of the mother ions in each vial were analyzed with API 150EX™ mass spectrometer (Applied Biosystems, Foster City, Calif.) and quantified using the ANALYST™ program.
The hKBBM assay was also performed in the presence of valinepyrrolidide, a DPP-IV inhibitor.

Recombinant DPP-IV [3] = biological target: T1, Recombinant DPP-IV; test: DPP-IV resistance assay by mass spectrometry
Method: The peptides were then desalted and concentrated on a C18 peptide micro trap (Michrom Bioresources, Inc., Auburn, Calif.) prior to introduction to a LTQ FT™ mass spectrometer (Thermo-Electron Corp., Waltham, Mass.) via an autosampler (Michrom Bioresources, Inc.). Peptides were eluted from a C5 packed 75 μm fused silica pico-frit column (New Objective, Inc., Woburn, Mass.) using a 5-60% acetonitrile/water gradient over 50 minutes at a flow rate of 500 nl/min. Extracted ion mass windows for the calculated m/z values of the most dominant charge states were used to search for both the parent compound and the theoretical hydrolyzed products within a given chromatogram. Exact mass was confirmed for each charge state by FT. The percentage of hydrolysis catalyzed by DPP-IV was estimated by dividing the area of product ions by the area of the total (parent+product) ions.
The estimated cleavage product conversion is based on the ratio of the ion extract area (indicated on top of the peaks) for [product ion]^5+ over that for total ions ([Mother Ion]^5++[product ion]^5+). The m/z ratios used to search for the expected ions are listed on the right side of the plots.

T1 sequence (P27487 whole entry, species assumed): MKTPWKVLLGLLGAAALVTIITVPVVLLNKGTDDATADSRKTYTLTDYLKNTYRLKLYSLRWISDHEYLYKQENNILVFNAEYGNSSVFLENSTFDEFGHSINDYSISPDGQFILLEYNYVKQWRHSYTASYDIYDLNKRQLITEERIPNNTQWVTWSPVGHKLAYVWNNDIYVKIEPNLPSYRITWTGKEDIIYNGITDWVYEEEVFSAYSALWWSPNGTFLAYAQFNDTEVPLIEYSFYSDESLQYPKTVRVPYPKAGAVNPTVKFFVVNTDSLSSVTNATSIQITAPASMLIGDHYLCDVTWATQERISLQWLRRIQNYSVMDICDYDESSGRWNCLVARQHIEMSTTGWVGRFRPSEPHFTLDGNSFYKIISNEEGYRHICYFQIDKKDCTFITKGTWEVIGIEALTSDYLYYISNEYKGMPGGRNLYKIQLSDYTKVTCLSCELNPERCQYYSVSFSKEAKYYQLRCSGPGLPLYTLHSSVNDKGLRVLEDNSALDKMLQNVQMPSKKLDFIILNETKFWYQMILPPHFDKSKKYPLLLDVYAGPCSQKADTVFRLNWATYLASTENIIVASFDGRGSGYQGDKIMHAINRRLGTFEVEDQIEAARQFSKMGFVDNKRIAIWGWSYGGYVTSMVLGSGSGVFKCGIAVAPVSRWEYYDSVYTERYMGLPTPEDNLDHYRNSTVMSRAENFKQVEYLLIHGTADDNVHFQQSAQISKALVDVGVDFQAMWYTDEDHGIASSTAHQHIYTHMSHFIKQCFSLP

| SMILES | glucose lowering in OGTT (FIGS. 7, 8) (NIH/Swiss mice) | intact conjugate compound present [2] | also measured |
| --- | --- | --- | --- |
| CCC(C)C(N)C(=O)N1CCCC1C(=O)NC(C(=O)O)C(C)CC (stereo not drawn) [Diprotin A, Ile-Pro-Ile] | – | – | IC50 (Recombinant DPP-IV [1]): 3.5 µM |
| CC[C@H](C)[C@H](NC(=O)[C@H](Cc1ccccc1)NC(=O)[C@H](CCC(=O)O)NC(=O)[C@H](CCCCN)NC(=O)[C@H](C)NC(=O)[C@H](C)NC(=O)[C@H](CCC(N)=O)NC(=O)CNC(=O)[C@H](CCC(=O)O)NC(=O)[C@H](CC(C)C)NC(=O)[C@H](Cc1ccc(O)cc1)NC(=O)[C@H](CO)NC(=O)[C@H](CO)NC(=O)[C@@H](NC(=O)[C@H](CC(=O)O)NC(=O)[C@H](CO)NC(=O)[C@@H](NC(=O)[C@H](Cc1ccccc1)NC(=O)[C@@H](NC(=O)CNC(=O)[C@H](CCC(=O)O)NC(=O)[C@H](C)NC(=O)[C@H](Cc1c[nH]cn1)NC(=O)COCCOCCNC(=O)COCCOCCNC(=O)[C@@H]1CCCN1C(=O)[C@H](C)NC(CCc1ccccc1)C(=O)O)[C@@H](C)O)[C@@H](C)O)C(C)C)C(=O)N[C@@H](C)C(=O)N[C@@H](Cc1c[nH]c2ccccc12)C(=O)N[C@@H](CC(C)C)C(=O)N[C@H](C(=O)N[C@@H](CCCCN)C(=O)NCC(=O)N[C@@H](CCCNC(=N)N)C(N)=O)C(C)C (stereo partly drawn) [Compound 4984, (R,S)-1-[N^2-(1-carboxy-3-phenylpropyl)-L-ala]-L-pro-8-amino-3,6-dioxaoctanoyl-8-amino-3,6-dioxaoctanoyl-GLP-1-(7-36) amide] | retain the glucose-lowering activity of GLP-1 | greater than 80% | duration of glucose lowering in OGTT (NIH/Swiss mice; 240 minutes sample): prolonged effect 4 hours after dosing |
| CC[C@H](C)[C@H](NC(=O)[C@H](Cc1ccccc1)NC(=O)[C@H](CCC(=O)O)NC(=O)[C@H](CCCCN)NC(=O)[C@H](C)NC(=O)[C@H](C)NC(=O)[C@H](CCC(N)=O)NC(=O)CNC(=O)[C@H](CCC(=O)O)NC(=O)[C@H](CC(C)C)NC(=O)[C@H](Cc1ccc(O)cc1)NC(=O)[C@H](CO)NC(=O)[C@H](CO)NC(=O)[C@@H](NC(=O)[C@H](CC(=O)O)NC(=O)[C@H](CO)NC(=O)[C@@H](NC(=O)[C@H](Cc1ccccc1)NC(=O)[C@@H](NC(=O)CNC(=O)[C@H](CCC(=O)O)NC(=O)[C@H](C)NC(=O)[C@H](Cc1c[nH]cn1)NC(=O)COCCOCCNC(=O)[C@@H]1CCCN1C(=O)[C@H](C)NC(CCc1ccccc1)C(=O)O)[C@@H](C)O)[C@@H](C)O)C(C)C)C(=O)N[C@@H](C)C(=O)N[C@@H](Cc1c[nH]c2ccccc12)C(=O)N[C@@H](CC(C)C)C(=O)N[C@H](C(=O)N[C@@H](CCCCN)C(=O)NCC(=O)N[C@@H](CCCNC(=N)N)C(N)=O)C(C)C (stereo partly drawn) [Compound 4983, (R,S)-1-[N^2-(1-carboxy-3-phenylpropyl)-L-ala]-L-pro-8-amino-3,6-dioxaoctanoyl-GLP-1-(7-36) amide] | retain the glucose-lowering activity of GLP-1 | greater than 80% | – |
| CC[C@H](C)[C@H](NC(=O)[C@H](Cc1ccccc1)NC(=O)[C@H](CCC(=O)O)NC(=O)[C@H](CCCCN)NC(=O)[C@H](C)NC(=O)[C@H](C)NC(=O)[C@H](CCC(N)=O)NC(=O)CNC(=O)[C@H](CCC(=O)O)NC(=O)[C@H](CC(C)C)NC(=O)[C@H](Cc1ccc(O)cc1)NC(=O)[C@H](CO)NC(=O)[C@H](CO)NC(=O)[C@@H](NC(=O)[C@H](CC(=O)O)NC(=O)[C@H](CO)NC(=O)[C@@H](NC(=O)[C@H](Cc1ccccc1)NC(=O)[C@@H](NC(=O)CNC(=O)[C@H](CCC(=O)O)NC(=O)[C@H](C)NC(=O)[C@@H](N)Cc1c[nH]cn1)[C@@H](C)O)[C@@H](C)O)C(C)C)C(=O)N[C@@H](C)C(=O)N[C@@H](Cc1c[nH]c2ccccc12)C(=O)N[C@@H](CC(C)C)C(=O)N[C@H](C(=O)N[C@@H](CCCCN)C(=O)NCC(=O)N[C@@H](CCCNC(=N)N)C(=O)NCC(=O)NCC(=O)NCC(=O)NCCCC[C@H](N)C(=O)N1CCSC1)C(C)C [Compound 4844, GLP-1-(7-37)-GG-(S)-2,6-diamino-1-(thiazolidin-3-yl)hexan-1-one amide] | – | – | DPP-IV catalyzed cleavage product ions (Recombinant DPP-IV [3]; incubation with DPP-IV): expected product ions were not observed |
| CC[C@H](C)[C@H](NC(=O)[C@H](Cc1ccccc1)NC(=O)[C@H](CCC(=O)O)NC(=O)[C@H](CCCCN)NC(=O)[C@H](C)NC(=O)[C@H](C)NC(=O)[C@H](CCC(N)=O)NC(=O)CNC(=O)[C@H](CCC(=O)O)NC(=O)[C@H](CC(C)C)NC(=O)[C@H](Cc1ccc(O)cc1)NC(=O)[C@H](CO)NC(=O)[C@H](CO)NC(=O)[C@@H](NC(=O)[C@H](CC(=O)O)NC(=O)[C@H](CO)NC(=O)[C@@H](NC(=O)[C@H](Cc1ccccc1)NC(=O)[C@@H](NC(=O)CNC(=O)[C@H](CCC(=O)O)NC(=O)[C@H](C)NC(=O)[C@@H](N)Cc1c[nH]cn1)[C@@H](C)O)[C@@H](C)O)C(C)C)C(=O)N[C@@H](C)C(=O)N[C@@H](Cc1c[nH]c2ccccc12)C(=O)N[C@@H](CC(C)C)C(=O)N[C@H](C(=O)N[C@@H](CCCCN)C(=O)NCC(=O)N[C@@H](CCCNC(=N)N)C(=O)NCC(=O)NCC(=O)NCC(=O)NCCCC[C@H](N)C(=O)N1CCSC1C#N)C(C)C (stereo partly drawn) [Compound 4845, GLP-1-(7-37)-GG-(S)-2,6-diamino-1-(thiazolidin-2-cyano-3-yl)hexan-1-one amide] | – | – | DPP-IV catalyzed cleavage product ions (Recombinant DPP-IV [3]): expected product ions were not observed |

From patent publication US8759295B2, “Peptide-peptidase inhibitor conjugates and methods of using same” (Amylin Pharmaceuticals, LLC, priority 2006, dated 2014)
